Read-outs that look alike come from different tables or passages of the source. Numbered stars: 1 amine (or outer) side, 2 acyl side, 3 side chain; on linkers, the order of the positions; unused ones are H or OH. Bridge positions count the residues as written; N and C are the ends. Square brackets hold non-standard residues; d marks the D form. Peptide text beside a SMILES is read from it. * marks the point of attachment. Phe(4-CF3) = N[C@@H](Cc1ccc(C(F)(F)F)cc1)C(=O)O; Bip = N[C@@H](Cc1ccc(-c2ccccc2)cc1)C(=O)O; dBip = N[C@H](Cc1ccc(-c2ccccc2)cc1)C(=O)O; dPhe(4-NH2) = Nc1ccc(C[C@@H](N)C(=O)O)cc1; Phe(4-Br) = N[C@@H](Cc1ccc(Br)cc1)C(=O)O; Phe(4-NH2) = Nc1ccc(C[C@H](N)C(=O)O)cc1; d(hPhe) = N[C@H](CCc1ccccc1)C(=O)O; d2Thi = N[C@H](Cc1cccs1)C(=O)O; Suc = O=C(CCC(=O)[*:2])[*:1]; Ac3c = NC1(C(=O)O)CC1; Boc = CC(C)(C)OC(=O)*
Experiments:
[1] = tested on: TNF-α (degradation of IkB in HeLa cells or A431 cells); assay: Human cell-based assay: inhibition of TNF-α induced degradation of IkB; conditions: for inhibition at 25 µM: 25 μM compound, read-out: Inhibition at Various Compound Concentrations, 25 μM; for inhibition at 5 µM: read-out: Inhibition at Various Compound Concentrations, 5 μM; for inhibition at 10 µM: read-out: Inhibition at Various Compound Concentrations, 10 μM
[2] = target: T1, TNFα / TNFα receptor (TNFα R1/Fc) (Homo sapiens, UniProt P01375); assay: Inhibition of binding of TNFα to the TNFα receptor (plate ELISA competition); conditions: Table 2
T1 construct: purchased R&D Systems
Outline: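 Plates were coated with TNFα at 15 nM. Test compound and 8.33 nM receptor-Fc (PBST, 2% DMSO) were first mixed in solution for 30 min at room temperature, then transferred to the plates for another 30 min. Competition was read by absorbance at 450 nm after HRP anti-human IgG Fc detection with TMB.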

[3] = read-out: Activity (IC50, inhibition of TNFα binding to TNFα R1/Fc)
[4] = 5 μM compound, HeLa or A431 cells
[5] = 10 μM compound, HeLa or A431 cells
[6] = Activity (IC50, inhibition of TNFα binding to TNFα R1/Fc)

T1 sequence (P01375 77-233 limits assumed, species assumed): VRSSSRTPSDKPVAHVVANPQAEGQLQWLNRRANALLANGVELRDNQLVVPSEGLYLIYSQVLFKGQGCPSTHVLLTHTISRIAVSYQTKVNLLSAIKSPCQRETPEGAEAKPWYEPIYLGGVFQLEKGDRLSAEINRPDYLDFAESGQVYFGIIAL

For `CC(C)(C)OC(=O)NCCCC[C@H](NC(=O)[C@@H]1Cc2ccc(cc2)NC(=O)CCC(=O)N[C@H](Cc2cccs2)C(=O)N[C@@H](Cc2ccc(-c3ccccc3)cc2)C(=O)N[C@H](Cc2ccccc2)C(=O)N1)C(=O)O` [Compound 35] ([d2Thi][Bip][dF][Phe(4-NH2)]K(Boc)-OH; linker N-4 via Suc), the inhibition at 25 µM ([1]; HeLa or A431 cells) was 50 to 80% and the IC50 [2, 3] was 10 to 30 µM.

In the case of `O=C(O)[C@@H]1Cc2ccc(cc2)NC(=O)[C@H](O)[C@@H](O)C(=O)N[C@H](Cc2ccsc2)C(=O)N[C@@H](Cc2ccc(-c3ccccc3)cc2)C(=O)N[C@H](Cc2ccccc2)C(=O)N1` [Compound 318], the inhibition at 5 µM [1, 4] is reported as under 10%, the inhibition at 10 µM [1, 5] is reported as 10 to 50% and the IC50 [2, 3] is reported as under 10 µM.

`O=C(O)CN(Cc1ccccc1)C(=O)[C@@H]1Cc2ccc(cc2)OCC(=O)N[C@H](Cc2cccs2)C(=O)N[C@@H](Cc2ccc(-c3ccccc3)cc2)C(=O)N[C@H](CCc2ccccc2)C(=O)N1` [Compound 323] showed an inhibition at 5 µM [1] of 10 to 50%, an inhibition at 10 µM [1] of 10 to 50% and an IC50 [2, 6] of under 10 µM.

For `COC(=O)[C@H](CC(=O)O)NC(=O)[C@@H]1Cc2ccc(cc2)OCC(=O)N[C@@H](Cc2cccs2)C(=O)N[C@H](Cc2ccc(-c3ccccc3)cc2)C(=O)N[C@@H](Cc2ccccc2)C(=O)N1` [Compound 388], the inhibition at 5 µM [1, 4] was under 10%, the inhibition at 10 µM [1, 5] was 10 to 50% and the IC50 [2, 3] was under 10 µM.

With `O=C(O)CCCNC(=O)[C@@H]1Cc2ccc(cc2)OCC(=O)N[C@@H](Cc2cccs2)C(=O)N[C@H](Cc2ccc(-c3ccccc3)cc2)C(=O)N[C@@H](Cc2ccccc2)C(=O)N1` [Compound 386] the inhibition at 5 µM [1, 4] was under 10%, the inhibition at 10 µM [1, 5] was under 10% and the IC50 [2, 3] was under 10 µM.

For `O=C1CCC(=O)N[C@H](CCc2ccccc2)C(=O)N[C@@H](Cc2ccc(C(F)(F)F)cc2)C(=O)N[C@H](Cc2ccccc2)C(=O)N[C@H](C(=O)NC2(C(=O)O)CC2)Cc2ccc(cc2)N1` [Compound 18] ([d(hPhe)][Phe(4-CF3)][dF][Phe(4-NH2)][Ac3c]-OH; linker N-4 via Suc), the inhibition at 5 µM [1, 4] was 50 to 80%, the inhibition at 10 µM [1, 5] was 10 to 50% and the IC50 [2, 3] was 10 to 30 µM.

In the case of `O=C(O)[C@@H]1Cc2ccc(cc2)NC(=O)[C@H](O)[C@@H](O)C(=O)N[C@H](Cc2cccs2)C(=O)N[C@@H](Cc2ccc(-c3ccccc3)cc2)C(=O)N[C@H](CCc2ccccc2)C(=O)N1` [Compound 289], the inhibition at 5 µM [1, 4] is reported as under 10%, the inhibition at 10 µM [1, 5] is reported as under 10% and the IC50 [2, 3] is reported as under 10 µM.

`O=C1CCC(=O)N[C@H](Cc2cccs2)C(=O)N[C@H](Cc2ccc(-c3ccccc3)cc2)C(=O)N[C@H](Cc2ccccc2)C(=O)N[C@H](C(=O)O)Cc2ccc(cc2)N1` [Compound 194] ([d2Thi][dBip][dF][Phe(4-NH2)]-OH; linker N-4 via Suc) showed an inhibition at 25 µM ([1]; HeLa or A431 cells) of under 10% and an IC50 [2, 3] of over 100 µM.

`O=C1COc2ccc(cc2)C[C@@H](C(=O)N[C@@H](CCc2ccccc2)C(=O)O)NC(=O)[C@H](Cc2ccccc2)NC(=O)[C@H](Cc2ccc(-c3ccccc3)cc2)NC(=O)[C@H](Cc2cccs2)N1` [Compound 328] showed an inhibition at 10 µM [1] of 10 to 50% and an IC50 [2, 6] of under 10 µM.

Work on `O=C1CCC(=O)N[C@H](CCc2ccccc2)C(=O)N[C@@H](Cc2ccc(Br)cc2)C(=O)N[C@H](Cc2ccccc2)C(=O)N[C@@H](C(=O)O)Cc2ccc(cc2)N1` [Compound 111] ([d(hPhe)][Phe(4-Br)][dF][dPhe(4-NH2)]-OH; linker N-4 via Suc) yielded an inhibition at 10 µM [1, 5] of under 10% and an IC50 [2, 3] of 10 to 30 µM.

Source: patent US8338565B2, “Macrocyclic compounds for inhibition of tumor necrosis factor alpha” (Ensemble Therapeutics Corporation, priority 2008, dated 2012)
